The values that follow are results of earlier work, collected in article PMC7751758, “Repurposing Sigma-1 Receptor Ligands for COVID-19 Therapy?” (Frontiers in Pharmacology, 2020).

pIC50, pKi: −log10 of the molar value. Where “and” joins values, the source holds several entries; their conditions need not be identical. Identical values can stand only once. Entries after “also recorded” stand apart in the source; their conditions may differ. Like-named read-outs stand apart in the source and are kept apart here. A value given as a limit tells only on which side of the number the result lay.

One may read the pIC50 as the IC50 on a negative log10 scale, so that one unit is a factor of ten. The pKi is the Ki on a negative log10 scale, so that one unit is a factor of ten. The term CC50 denotes the concentration that lowers cell viability or growth by half.

One data set has as its target Sigma-1 receptor. Particulars: for pIC50: read-out: Sigma-1 receptor affinity IC50; for pKi: read-out: Sigma-1 receptor affinity Ki.
The subject of a further data set is COVID-19. Particulars: for decreasing the likelihood of death or speeding recovery: large, randomized clinical trial in hospitalized patients, ref FDA communication.
The conditions of data set [1]: associated with bioaccumulation of the drugs; ref Palmeira et al., 2020.
The subject of another data set is HIV. The following applies: exposure to cocaine, by activating Sig-1R; ref Roth et al., 2005.
Another data set has as its system HCoV-229E. The following applies: replication in cell culture.
In data set [2] the test system is EBOV.
Another data set relates to EBV. The following applies: infection of B lymphocytes.
Data set [3] has as its system HCV infection of human hepatocarcinoma Huh-7 cells. The following applies: absence of cytotoxicity at low micromolar and submicromolar concentrations; ref Gastaminza et al., 2010.
The subject of the next data set is CHIKV. Particulars: cytopathic effect induced by Chikungunya virus and other alphaviruses (Semliki Forest virus and Sindbis virus). For orientation: Protection from cytopathic effect is a common read-out in antiviral testing.
The subject of the next data set is HCV infection. Particulars: without significantly reducing cell biomass; ref Mingorance et al., 2014.
For data set [4], the system named is EBOV. Particulars: mouse, in vivo.
Data set [5] deals with HCV-induced cytopathic effect on the engineered cell line n4mBid. Particulars: leads of the cell protection screen; ref Chockalingam et al., 2010.
Data set [6] deals with H5N1 virus in A549 lung epithelial cells.
The test system of another data set is H5N1 virus. Particulars: mouse, in vivo.
The test system of data set [7] is SARS-CoV-2 in Huh-7 cells. Particulars: for antiviral potency: devoid of cytotoxicity, ref Mirabelli et al., 2020.
Data set [8] relates to SARS-CoV-2 in iPSC-derived alveolar epithelial type 2 cells (iAEC2s). The following applies: ref Mirabelli et al., 2020, read-out: IC50 against SARS-CoV-2.
The subject of a further data set is Huh-7 cells. The following applies: ref Mirabelli et al., 2020; read-out: CC50 (cell toxicity).
Data set [9] has as its system EBOV. Particulars: guinea pig, in vivo.
In data set [10] the test system is HCoV-OC43. The following applies: replication in HRT-18 cells, ref Keyaerts et al., 2009.
The subject of data set [11] is HCoV-OC43. The following applies: mothers treated daily with chloroquine (15 mg/kg); ref Keyaerts et al., 2009.
A further data set relates to HCV. The following applies: entry and assembly steps in Huh-7.5.1 cells, ref Cheng et al., 2013.
The subject of the next data set is Ebola. The following applies: in vivo.

For `CCN(CCO)CCCC(C)Nc1ccnc2cc(Cl)ccc12` (stereo not drawn) [Hydroxychloroquine], the negative logarithm of the IC50 (pIC50) on Sigma-1 receptor was 5.67. Further, the “Antiviral activity: Virus” value in the data set with SARS-CoV and in the data set on MERS-CoV was “in vitro activity” throughout. The “efficacy in COVID-19 patients” value in the data set on COVID-19 (first clinical studies, ref Geleris et al., 2020, Mitjà et al., Roustit et al.) is “do not support efficacy”. Besides, the “adverse drug reactions in patients with COVID-19” value with COVID-19 (human, in vivo) is reported as “serious adverse drug reactions”. The “decreasing the likelihood of death or speeding recovery” value in the data set with COVID-19 (2020) is on record as “no benefit”. Moreover, the side effects entry in data set [1] was “serious retinopathies and cardiopathies”.

As to `COC(=O)[C@H]1[C@@H](OC(=O)c2ccccc2)C[C@@H]2CC[C@H]1N2C` [cocaine], the HIV infection result with HIV is given as “enhance HIV infection”.

For the compound `Cc1cccc(C)c1OCC(=O)N[C@@H](Cc1ccccc1)[C@@H](O)C[C@H](Cc1ccccc1)NC(=O)[C@H](C(C)C)N1CCCNC1=O` [lopinavir], the “Antiviral activity: Virus” value was “inhibited the replication” with SARS-CoV and “inhibited the replication” in the data set on HCoV-229E (ref de Wilde et al., 2014).

Turning to `CN1CCN(CCCN2c3ccccc3Sc3ccc(Cl)cc32)CC1` [Prochlorperazine], the “Antiviral activity: Virus” value in the data set with EBOV [2] is reported as “active”. Also, the “Antiviral activity: Virus” value in the data set on EBV (ref Nemerow and Cooper, 1984) is listed as “inhibit infection of B lymphocytes”. The “reduction in HCV infection of Huh-7 cells, as compared to the vehicle DMSO control” value (“reduction in HCV infection” for short) in data set [3] was greater than 85%. Moreover, in the data set with Ebola virus (EBOV), the cellular toxicity is less than 30% and the viral inhibition was greater than 50%.

Regarding `CN(C)CCCN1c2ccccc2Sc2ccc(Cl)cc21` [Chlorpromazine], the pKi at Sigma-1 receptor is 6.84. For the same compound, the “Antiviral activity: Virus” value in the data set on SARS-CoV is given as “inhibited the replication; also recorded: in vitro activity; also recorded: SARS-CoVSARS-CoV-2”; in the data set on MERS-CoV it was “in vitro activity”; in the data set on CHIKV (ref Pohjala et al., 2011, listed as chlorpromazine) it was “inhibition of the cytopathic effect”; with HCoV-229E (ref de Wilde et al., 2014, listed as chlorpromazine), “inhibited the replication”; in the data set with EBV (ref Nemerow and Cooper, 1984, listed as chlorpromazine), “inhibit infection of B lymphocytes”. The “reduction of HCV infection” value in the data set on HCV infection is listed as “more than one order of magnitude”.

Turning to `CN[C@H]1CC[C@@H](c2ccc(Cl)c(Cl)c2)c2ccccc21` [Sertraline], the “Antiviral activity: Virus” value in the data set on EBOV [2] was “active”. For the same compound, the “protection in a murine EBOV infection model” value in the data set on EBOV [4] is given as “protective ability”.

As for `CN(C)C(=O)C(CCN1CCC(O)(c2ccc(Cl)cc2)CC1)(c1ccccc1)c1ccccc1` [Loperamide], the “Antiviral activity: Virus” value was “inhibited the replication” with SARS-CoV and “inhibited the replication” in the data set on HCoV-229E (ref de Wilde et al., 2014, listed as loperamide).

As for `CN(C)CCC=C1c2ccccc2CCc2ccccc21` [Amitriptyline], at Sigma-1 receptor, the pIC50 is 6.67 and 6.52; the pKi was 6.54. In addition, the “alleviation of HCV-induced cytopathic effect (n4mBid cell viability relative to untreated cells)” value in data set [5] was “increase n4mBid cell viability; also recorded: inhibit the HCV-induced cytopathic effect”. Besides, the “viability of A549 cells infected with H5N1” value in [6] is “increased viability”. In the data set with H5N1 virus, the infiltrating cell count entry is “reduced”; the “lung edema and survival” value is given as “improved”; the lung injury result is on record as “decreased”.

In the case of `Cc1cc(OCCN2CCOCC2)nn1-c1ccc2ccccc2c1` [E-52862 (S1RA)], in data set [7], the antiviral potency result is recorded as “below 1 µM”. In addition, the negative-log IC50 (pIC50) in [7] (ref Mirabelli et al., 2020, read-out: IC50 against SARS-CoV-2) was 6.65; in [8], 6.00. In addition, in the data set with Huh-7 cells, the 50% cytotoxic concentration (CC50) is greater than 5 µM.

Consider `CC[C@H]1OC(=O)[C@H](C)[C@@H](O[C@H]2C[C@@](C)(OC)[C@@H](O)[C@H](C)O2)[C@H](C)[C@@H](O[C@@H]2O[C@H](C)C[C@H](N(C)C)[C@H]2O)[C@](C)(O)C[C@@H](C)CN(C)[C@H](C)[C@@H](O)[C@]1(C)O` [azithromycin], for which, in the data set with EBOV [4], the “survival of infected mice” value is reported as “increased survival”. Further, the survival entry in the data set on EBOV [9] was “none of the tested doses increased survival”.

For the compound `CC(C(O)c1ccc(O)cc1)N1CCC(Cc2ccccc2)CC1` (stereo not drawn) [Ifenprodil], on Sigma-1 receptor, the pIC50 is 8.26. Further, the “alleviation of HCV-induced cytopathic effect (n4mBid cell viability relative to untreated cells)” value in [5] is “increase n4mBid cell viability; also recorded: inhibit the HCV-induced cytopathic effect”. Moreover, the “cell viability in vitro” value in data set [6] was “increased cell viability”. Moreover, in the data set on H5N1 virus, the “leukocyte infiltration and lung injury” value is “markedly decreased”; the survival result is “improved survival”.

`CCN(CC)CCCC(C)Nc1ccnc2cc(Cl)ccc12` (stereo not drawn) [Chloroquine]: at Sigma-1 receptor, the negative logarithm of the IC50 (pIC50) was 5.64. The negative logarithm of the Ki (pKi) on Sigma-1 receptor was 6.96. Moreover, the “Antiviral activity: Virus” value was “inhibited the replication of SARS-CoV; also recorded: in vitro activity” in the data set with SARS-CoV; “in vitro activity” in the data set on MERS-CoV; “inhibition of the cytopathic effect” in the data set with CHIKV (ref Pohjala et al., 2011, listed as chloroquine); “inhibited the replication” with HCoV-229E (ref de Wilde et al., 2014, listed as chloroquine); “inhibited HCoV-OC43 replication” with HCoV-OC43 [10]. In addition, the “survival of infected mice” value in the data set on EBOV [4] was “increased survival”. In the data set on EBOV [9], the survival entry is recorded as “none of the tested doses increased survival”. Moreover, the “HCoV-OC43-induced death in newborn mice” value in the data set on HCoV-OC43 [11] is reported as “prevented HCoV-OC43-induced death”. The “decreasing the likelihood of death or speeding recovery” value with COVID-19 (2020) is on record as “no benefit”. In addition, in [1], the side effects entry was “serious retinopathies and cardiopathies”. In addition, the cellular toxicity in the data set on Ebola virus (EBOV) was less than 30%. In addition, the viral inhibition in the data set on Ebola virus (EBOV) is greater than 50%.

Consider `COc1ccc(CCN(C)CCCC(C#N)(c2ccc(OC)c(OC)c2)C(C)C)cc1OC` (stereo not drawn) [Verapamil], for which, on Sigma-1 receptor, the pIC50 is […]. Besides, the antiviral potency entry in data set [7] is given as “below 1 µM”.

For `O=C(CCCN1CCC(O)(c2ccc(Cl)cc2)CC1)c1ccc(F)cc1` [Haloperidol], in the data set on EBV (ref Nemerow and Cooper, 1984, listed as haloperidol), the “Antiviral activity: Virus” value is listed as “inhibit infection of B lymphocytes”. For the same compound, the “reduction in HCV infection” value in data set [3] was greater than 85%.

Consider `CC(C)COCC(CN(Cc1ccccc1)c1ccccc1)N1CCCC1` (stereo not drawn) [Bepridil], for which the negative logarithm of the IC50 (pIC50) on Sigma-1 receptor was 6.44. Further, the “Antiviral activity: Virus” value with EBOV [2] is on record as “active”. Further, the “protection in a murine EBOV infection model” value with EBOV [4] is reported as “protective ability”.

As for `CN1CCN(CCCN2c3ccccc3Sc3ccc(C(F)(F)F)cc32)CC1` [Trifluoperazine], the “Antiviral activity: Virus” value with EBV (ref Nemerow and Cooper, 1984, listed as trifluoperazine) is recorded as “inhibit infection of B lymphocytes”. Also, the “reduction in HCV infection” value in data set [3] is greater than 85%. Besides, in [5], the “alleviation of HCV-induced cytopathic effect (n4mBid cell viability relative to untreated cells)” value is on record as “increase n4mBid cell viability”.

Take `CCCCc1oc2ccccc2c1C(=O)c1cc(I)c(OCCN(CC)CC)c(I)c1` [Amiodarone]: the results for the “Antiviral activity: Virus” value with HCV and in the data set with SARS-CoV were “inhibit” and “inhibit the spreading in vitro of SARS-CoV”, respectively. Besides, the “survival of infected mice” value with EBOV [4] is reported as “increased survival”. The antiviral potency entry in [7] is “below 1 µM”. The “outcome of a patient with COVID-19-related respiratory failure” value in the data set on COVID-19 (case report, off-label short therapy 5 days with supportive measures, ref Castaldo et al., 2020) is “recovered”. For the same compound, in the data set with Ebola, the “case fatality rate compared with local historical data” value was “decrease in case fatality rate”. In the data set with Ebola virus (EBOV), the viral inhibition is on record as greater than 50%.
